Patent US11814386B2, “Fused pyrrolines which act as ubiquitin-specific protease 30 (USP30) inhibitors” (FORMA Therapeutics, Inc., priority 2018, dated 2023)

Each compound was assayed against human recombinant USP30 (Homo sapiens (Human), UniProt Q70CQ3) (assay: Ubiquitin-Rhodamine 110 Assay for USP30 Activity). Settings: 0.2 nM USP30, 25 nM Ub-Rh110, 30 min preincubation.
Sequence of human recombinant USP30 (Q70CQ3 whole entry): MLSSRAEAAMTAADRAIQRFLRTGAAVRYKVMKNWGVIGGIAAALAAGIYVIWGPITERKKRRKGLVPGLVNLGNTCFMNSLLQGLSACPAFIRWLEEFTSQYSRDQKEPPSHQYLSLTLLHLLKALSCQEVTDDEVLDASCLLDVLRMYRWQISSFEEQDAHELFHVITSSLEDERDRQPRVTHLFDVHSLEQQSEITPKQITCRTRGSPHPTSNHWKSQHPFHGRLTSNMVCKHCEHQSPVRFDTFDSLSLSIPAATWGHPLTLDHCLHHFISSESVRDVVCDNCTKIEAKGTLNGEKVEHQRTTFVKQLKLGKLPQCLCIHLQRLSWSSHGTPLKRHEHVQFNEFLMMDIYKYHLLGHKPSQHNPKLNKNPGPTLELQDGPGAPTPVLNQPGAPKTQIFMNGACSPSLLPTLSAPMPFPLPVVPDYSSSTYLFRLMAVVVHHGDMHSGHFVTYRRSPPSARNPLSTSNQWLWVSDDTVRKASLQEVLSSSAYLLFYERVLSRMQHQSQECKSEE
Assay type: biochemical
Protocol: The assay was performed in a final volume of 9 μL in assay buffer containing 20 mM Tris-HCl (pH 8.0, (IM Tris-HCl, pH 8.0 solution; Corning 46-031-CM)), 1 mM GSH (L-glutathione reduced, Sigma-Aldrich, G4251-100G), 0.03% BGG (0.22 μM filtered, Sigma, G7516-25G), and 0.01% Triton X-100 (Sigma, T9284-10L). Nanoliter quantities of 10-point, 3-fold serial dilution in DMSO were pre-dispensed into 1536 assay plates (Corning, #3724BC) for a final test concentration of 25 μM to 1.3 nM, top to lowest dose, respectively. Concentration and incubation times were optimized for the maximal signal-to-background while maintaining initial velocity conditions at a fixed substrate concentration. The final concentration of USP30 (human recombinant USP30, Boston Biochem, cat. #E-582) in the assay was 0.2 nM. Final substrate (Ub-Rh110; Ubiquitin-Rhodamine 110, UbiQ-126) concentration was 25 nM with [Ub-Rh110]<<Km. 3 μL of 2×USP30 was added to assay plates (pre-stamped with compound), preincubated for 30 minutes and then treated with 3 μL of 2×Ub-Rh110. Plates were incubated for 30 minutes at room temperature before addition of 3 μL of stop solution (final concentration of 10 mM citric acid (Sigma, 251275-500G)). Fluorescence was read on the Envision (excitation at 485 nm and emission at 535 nm; Perkin Elmer) or on the PheraSTAR (excitation at 485 nm and emission at 535 nm; BMG Labtech) fluorescence reader.
For all assay formats, data were reported as percent inhibition compared with control wells based on the following equation: % inh=1−((FLU−AveLow)/(AveHigh−AveLow)) where FLU=measured Fluorescence, AveLow=average Fluorescence of no enzyme control (n=16), and AveHigh=average Fluorescence of DMSO control (n=16). IC50 values were determined by curve fitting of the standard 4 parameter logistic fitting algorithm included in the Activity Base software package: IDBS XE Designer Model205. Data is fitted using the Levenburg Marquardt algorithm.
N#CN1C[C@@H]2C[C@H]1CCN2C(=O)c1cc(-c2ccccc2Oc2ccccc2)[nH]n1 (single isomer, unassigned) [Compound 1-a] gave an IC50 of 100 to 1000 nM.
N#CN1C[C@H]2C[C@@H]1CCN2C(=O)c1cc(-c2ccccc2Oc2ccccc2)[nH]n1 (single isomer, unassigned) [Compound 1b] was tested, and the IC50 was < 100 nM.
With N#CN1CC2CCC1C2NC(=O)c1cc(-c2ccccc2Oc2ccccc2)[nH]n1 (single isomer, unassigned) [Compound 2-a] the IC50 was < 100 nM.
In the case of N#CN1CC2CCC1C2NC(=O)c1cc(-c2ccccc2Oc2ccccc2)[nH]n1 (single isomer, unassigned) [Compound 2-b], the IC50 is reported as > 1000 nM.
Work on N#CN1C[C@H]2C[C@@]2(NC(=O)c2cc(-c3ccccc3Oc3ccccc3)[nH]n2)C1 (single isomer, unassigned) [Compound 3-a] yielded an IC50 of 100 to 1000 nM.
N#CN1C[C@@H]2C[C@]2(NC(=O)c2cc(-c3ccccc3Oc3ccccc3)[nH]n2)C1 (single isomer, unassigned) [Compound 3-b] was tested, and the IC50 was < 100 nM.
Work on N#CN1C[C@@H]2C[C@H]1CN2C(=O)c1cc(-c2ccccc2Oc2ccccc2)[nH]n1 (single isomer, unassigned) [Compound 4-a] yielded an IC50 of 100 to 1000 nM.
Work on N#CN1C[C@H]2C[C@@H]1CN2C(=O)c1cc(-c2ccccc2Oc2ccccc2)[nH]n1 (single isomer, unassigned) [Compound 4-b] yielded an IC50 of 100 to 1000 nM.
In the case of N#CN1C[C@@H](NC(=O)c2cc(-c3ccccc3Oc3ccccc3)[nH]n2)C2(CC2)C1 (single isomer, unassigned) [Compound 5-a], the IC50 is reported as < 100 nM.
For N#CN1C[C@H](NC(=O)c2cc(-c3ccccc3Oc3ccccc3)[nH]n2)C2(CC2)C1 (single isomer, unassigned) [Compound 5-b], the IC50 was 100 to 1000 nM.
Compound N#CN1C[C@H]2C[C@@H]1[C@H]2NC(=O)c1cc(-c2ccccc2Oc2ccccc2)[nH]n1 (single isomer, unassigned) [Compound 8-a] has an IC50 of 100 to 1000 nM.
N#CN1C[C@@H]2C[C@H]1[C@@H]2NC(=O)c1cc(-c2ccccc2Oc2ccccc2)[nH]n1 (single isomer, unassigned) [Compound 8-b] gave an IC50 of 100 to 1000 nM.
In the case of N#CN1C[C@@H](NC(=O)c2cc(-c3ccccc3Oc3ccccc3)[nH]n2)CC12COC2 (single isomer, unassigned) [Compound 9-a], the IC50 is reported as > 1000 nM.
With N#CN1C[C@H](NC(=O)c2cc(-c3ccccc3Oc3ccccc3)[nH]n2)CC12COC2 (single isomer, unassigned) [Compound 9-b] the IC50 was > 1000 nM.
In the case of N#CN1C[C@@H]2CCC[C@]2(NC(=O)c2cc(-c3ccccc3Oc3ccccc3)[nH]n2)C1 (single isomer, unassigned) [Compound 20-a], the IC50 is reported as < 100 nM.
For N#CN1C[C@H]2CCC[C@@]2(NC(=O)c2cc(-c3ccccc3Oc3ccccc3)[nH]n2)C1 (single isomer, unassigned) [Compound 20-b], the IC50 was < 100 nM.
In the case of N#CN1C[C@@H]2CC[C@]2(NC(=O)c2cc(-c3ccccc3Oc3ccccc3)[nH]n2)C1 (stereo in doubt) [Compound 6-a, N-((1R,5S)-3-cyano-3-azabicyclo[3.2.0]heptan-1-yl)-5-(2-phenoxyphenyl)-1H-pyrazole-3-carboxamide], the IC50 is reported as < 100 nM.
With N#CN1C[C@H]2CC[C@@]2(NC(=O)c2cc(-c3ccccc3Oc3ccccc3)[nH]n2)C1 (stereo in doubt) [Compound 6-b, N-((1S,5R)-3-cyano-3-azabicyclo[3.2.0]heptan-1-yl)-5-(2-phenoxyphenyl)-1H-pyrazole-3-carboxamide] the IC50 was 100 to 1000 nM.
